The record followed here is patent US20230203043A1, “NOVEL IMIDAZOPYRAZINE DERIVATIVES” (Hoffmann-La Roche Inc., priority 2020, published 2023).

Where a name gives a salt, the structure may show the parent alone.

For one test, the system named is Acinetobacter baumannii ATCC17961. Put plainly: Antimicrobial susceptibility testing: 90% growth inhibitory concentration (IC90) determination in Iso-Sensitest broth, OD600 growth. The class given is cell-based. The conditions noted are these: Acinetobacter baumannii, ATCC17961, 16 h, read-out: A. baumannii ATCC 17961 IC90 (uM), strain ATCC 17961, OD600 growth over 16 h. The procedure:
Antimicrobial Susceptibility Testing:
90% Growth Inhibitory Concentration (IC90) Determination
The in vitro antimicrobial activity of the compounds was determined according to the following procedure:
The assay used a 10-points Iso-Sensitest broth medium to measure quantitatively the in vitro activity of the compounds against Acinetobacter baumannii ATCC17961 or ATCC17968.
Stock compounds in DMSO were serially twofold diluted (e.g. range from 50 to 0.097 μM final concentration) in 384 wells microtiter plates and inoculated with 49 μl the bacterial suspension in Iso-Sensitest medium to have a final cell concentration of ˜5×10^(5) CFU/ml in a final volume/well of 50 ul/well. Microtiter plates were incubated at 35±2° C.
Bacterial cell growth was determined with the measurement of optical density at λ=600 nm each 20 minutes over a time course of 16 h. Growth inhibition was calculated during the logarithmic growth of the bacterial cells with determination of the concentration inhibiting 50% (IC50) and 90% (IC90) of the growth.
Table 7 provides the 90% growth inhibitory concentrations (IC90) in micromoles per liter of the compounds of present invention obtained against the strain Acinetobacter baumannii ATCC17961 and/or ATCC17968.
As to `Cc1cc(Nc2nccn3c(-c4cn(CC#N)nc4C(F)(F)F)cnc23)cc(F)c1C(=O)N1CCN(C(=O)C2CCNCC2)CC1` [Example 703, 2-(4-(8-((3-fluoro-5-methyl-4-(4-(piperidine-4-carbonyl)piperazine-1-carbonyl)phenyl)amino)imidazo[1,2-a]pyrazin-3-yl)-3-(trifluoromethyl)-1H-pyrazol-1-yl)acetonitrile formate], the IC90 – broadly, the concentration needed for an effect of 90% – was found to be 0.383 µM. Take `CCc1cc(Nc2nccn3c(-c4cn(CC#N)nc4C(F)(F)F)cnc23)ccc1C(=O)NCCNC(=O)[C@@H]1CC[C@@H](N)C1` [Example 587, N-(2-((1R,3R)-3-aminocyclopentane-1-carboxamido)ethyl)-4-((3-(1-(cyanomethyl)-3-(trifluoromethyl)-1H-pyrazol-4-yl)imidazo[1,2-a]pyrazin-8-yl)amino)-2-ethylbenzamide formate]: the IC90 came out at 0.221 µM. As for `N#CCn1cc(-c2cnc3c(Nc4ccc(C(=O)N5CCN(C(=O)[C@H]6CC[C@H](N)C6)CC5)c(Cl)c4)nccn23)c(C(F)(F)F)n1` [Example 582, 2-(4-(8-((4-(4-((1S,3S)-3-aminocyclopentane-1-carbonyl)piperazine-1-carbonyl)-3-chlorophenyl)amino)imidazo[1,2-a]pyrazin-3-yl)-3-(trifluoromethyl)-1H-pyrazol-1-yl) acetonitrile formate], the IC90 amounted to 0.232 µM.

In the case of `CCc1cc(Nc2nccn3c(-c4cn(CC#N)nc4C(F)(F)F)cnc23)ccc1C(=O)NCC(=O)N1CC2CC1CN2` (stereo not drawn) [Example 512, 4-[[3-[1-(cyanomethyl)-3-(trifluoromethyl)pyrazol-4-yl]imidazo[1,2-a]pyrazin-8-yl]amino]-N-[2-(2,5-diazabicyclo[2.2.1]heptan-2-yl)-2-oxo-ethyl]-2-ethyl-benzamide formate], the IC90 stood at 0.341 µM. As to `C[C@H](NC(=O)c1ccc(Nc2nccn3c(-c4c[nH]nc4C(F)(F)F)cnc23)cc1Cl)C(=O)N[C@H]1CCNC1` [Example 127, 2-chloro-N-[(2S)-1-oxo-1-[[(3S)-pyrrolidin-3-yl]amino]propan-2-yl]-4-[[3-[3-(trifluoromethyl)-1H-pyrazol-4-yl]imidazo[1,2-a]pyrazin-8-yl]amino]benzamide formate], the IC90 was greater than 5 µM. With `CNC(=O)c1ccc(Nc2nccn3c(-c4cn(C5CCN(Cc6ccccc6)CC5)nc4C(F)(F)F)cnc23)cc1Cl` [Example 592, 4-((3-(1-(1-benzylpiperidin-4-yl)-3-(trifluoromethyl)-1H-pyrazol-4-yl)imidazo[1,2-a]pyrazin-8-yl)amino)-2-chloro-N-methylbenzamide formate], the IC90 came to 0.402 µM.

Staying with this test, now noted: Acinetobacter baumannii, ATCC17961, 16 h, strain ATCC 17961, OD600 growth over 16 h, read-out: A. baumannii ATCC 17961 IC90.
Consider `CCc1cc(Nc2nccn3c(-c4c[nH]nc4C(F)(F)F)cnc23)ccc1C(=O)NCCCNC(=O)[C@@H](N)CNC(=N)N` [Example 13, N-[3-[[(2S)-2-amino-3-carbamimidamidopropanoyl]amino]propyl]-2-ethyl-4-[[3-[3-(trifluoromethyl)-1H-pyrazol-4-yl]imidazo[1,2-a]pyrazin-8-yl]amino]benzamide formate], for which the IC90 amounted to 0.166 µM. On to `CCc1cc(Nc2nccn3c(-c4c[nH]nc4C(F)(F)F)cnc23)ccc1C(=O)NCCCNC(=O)N1CC[C@@H](N)C1` [Example 631, (R)-3-amino-N-(3-(2-ethyl-4-((3-(3-(trifluoromethyl)-1H-pyrazol-4-yl)imidazo[1,2-a]pyrazin-8-yl)amino)benzamido)propyl) pyrrolidine-1-carboxamide], for which the IC90 was found to be 0.209 µM. Turning to `Cc1cc(Nc2nccn3c(-c4cn(CC(F)F)nc4C(F)(F)F)cnc23)cc(F)c1C(=O)N[C@H](C)CN` [Example 704, (R)-N-(1-aminopropan-2-yl)-4-((3-(1-(2,2-difluoroethyl)-3-(trifluoromethyl)-1H-pyrazol-4-yl)imidazo[1,2-a]pyrazin-8-yl)amino)-2-fluoro-6-methylbenzamide], the IC90 was found to be 0.386 µM. Turning to `O=C(c1ccc(Nc2nccn3c(-c4c[nH]nc4C(F)(F)F)cnc23)cc1Cl)N1CCN(C(=O)[C@H]2CCCN2)CC1` [Example 198, [2-chloro-4-[[3-[3-(trifluoromethyl)-1H-pyrazol-4-yl]imidazo[1,2-a]pyrazin-8-yl]amino]phenyl]-[4-[(2R)-pyrrolidine-2-carbonyl]piperazin-1-yl]methanone], the IC90 is 0.216 µM. Still for that read-out and setting: the value for `C[C@H](N)C(=O)N1CCN(C(=O)c2ccc(Nc3nccn4c(-c5c[nH]nc5C(F)(F)F)cnc34)cc2Cl)CC1` [Example 206, (2S)-2-amino-1-[4-[2-chloro-4-[[3-[3-(trifluoromethyl)-1H-pyrazol-4-yl]imidazo[1,2-a]pyrazin-8-yl]amino]benzoyl]piperazin-1-yl]propan-1-one] was 0.169 µM; that for `CCc1cc(Nc2nccn3c(-c4cn(CC#N)nc4C(F)F)cnc23)ccc1C(=O)N1CCN(C(=O)[C@H]2C[C@H](N)C2)CC1` [Example 800, 2-(4-(8-((4-(4-((1r,3r)-3-aminocyclobutane-1-carbonyl)piperazine-1-carbonyl)-3-ethylphenyl)amino)imidazo[1,2-a]pyrazin-3-yl)-3-(difluoromethyl)-1H-pyrazol-1-yl)acetonitrile] was 2.78 µM. Still for that read-out and setting: the value for `Cc1cc(Nc2nccn3c(-c4cn(CCF)nc4C(F)(F)F)cnc23)cc(F)c1C(=O)NCCOCCN` [Example 61, N-[2-(2-aminoethoxy)ethyl]-2-fluoro-4-[[3-[1-(2-fluoroethyl)-3-(trifluoromethyl)pyrazol-4-yl]imidazo[1,2-a]pyrazin-8-yl]amino]-6-methylbenzamide] was 0.232 µM. The same measure, in the same setting: the result for `CCc1cc(Nc2nccn3c(-c4cn(COC)nc4C(F)F)cnc23)ccc1C(=O)N1CCNCC1` [Example 801, (4-((3-(3-(difluoromethyl)-1-(methoxymethyl)-1H-pyrazol-4-yl)imidazo[1,2-a]pyrazin-8-yl)amino)-2-ethylphenyl) (piperazin-1-yl)methanone] reads 3 µM; that for `CCc1cc(Nc2nccn3c(-c4cn(CC(F)F)nc4C(F)F)cnc23)ccc1C(=O)N1CCN(C(=O)C2(O)CCNCC2)CC1` [Example 764, (4-(4-((3-(1-(2,2-difluoroethyl)-3-(difluoromethyl)-1H-pyrazol-4-yl)imidazo[1,2-a]pyrazin-8-yl)amino)-2-ethylbenzoyl)piperazin-1-yl)(4-hydroxypiperidin-4-yl)methanone], 0.809 µM.

Staying with this test, now noted: strain ATCC 17961, OD600 growth over 16 h, read-out: A. baumannii ATCC 17961 IC90.
Consider “(3-aminoazetidin- 1-yl)-[2-chloro-4- [[3-[1-(2,2- difluoroethyl)-3- pyrazol-4- yl]imidazo[1,2- a]pyrazin-8- yl]amino]phenyl] methanone [Example 101]”, for which the IC90 was 0.138 µM.

“4-[2-chloro-4- [[3-[1-(2- cyanoethyl)-3- pyrazol-4- yl]imidazo[1,2- a]pyrazin-8- yl]amino]benzoyl]- N-[(3R)- pyrrolidin-3- yl]piperazine-1- carboxamide formate [Example 261]”: the IC90 came to 0.521 µM. Turning to `C#CCNCCCNC(=O)c1c(C)cc(Nc2nccn3c(-c4cn(CC#N)nc4C(F)(F)F)cnc23)cc1F` [Example 76, 4-[[3-[1-(cyanomethyl)-3-(trifluoromethyl)pyrazol-4-yl]imidazo[1,2-a]pyrazin-8-yl]amino]-2-fluoro-6-methyl-N-[3-(prop-2-ynylamino)propyl] benzamide], the 90% effect concentration (IC90) was 2.09 µM.
